Article PMC5823845 (Bioorganic & Medicinal Chemistry, 2018)
Like-named read-outs stand apart in the source and are kept apart here.

Key:
mouse RAR beta receptor = target: T1, mouse RAR beta receptor (Mus musculus, UniProt P22605); details: ratio of relative EC50s RARβ/RARα
T1 sequence (P22605 210-444 limits assumed): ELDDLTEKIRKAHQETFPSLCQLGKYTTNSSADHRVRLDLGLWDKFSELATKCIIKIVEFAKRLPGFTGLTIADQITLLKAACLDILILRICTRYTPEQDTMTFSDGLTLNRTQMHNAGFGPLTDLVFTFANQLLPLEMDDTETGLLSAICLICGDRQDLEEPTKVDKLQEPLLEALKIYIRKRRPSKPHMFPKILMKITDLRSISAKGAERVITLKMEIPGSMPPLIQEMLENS

mouse RAR gamma receptor = target: T2, mouse RAR gamma receptor (Mus musculus, UniProt P18911)
T2 sequence (P18911 185-419 limits assumed): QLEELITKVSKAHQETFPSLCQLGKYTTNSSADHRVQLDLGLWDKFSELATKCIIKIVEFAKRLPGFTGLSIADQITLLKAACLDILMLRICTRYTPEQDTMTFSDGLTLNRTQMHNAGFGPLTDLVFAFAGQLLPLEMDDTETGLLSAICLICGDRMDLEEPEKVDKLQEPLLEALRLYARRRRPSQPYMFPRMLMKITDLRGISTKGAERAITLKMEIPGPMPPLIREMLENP

[1] = Intrinsic clearance in liver microsomes; type: in vitro ADME; details: 37 °C, NADPH, 45 min, mean of 5
Procedure: The reaction is terminated by the addition of methanol. Following centrifugation, the supernatant is analyzed on the LC-MS/MS. […] The data is the mean on 5 separate experiments.
The ln peak area ratio (compound peak area/internal standard peak area) is plotted against time and the gradient of the line determined.
(see Supplementary data file for details).

PK studies in rats = type: in vivo, Sprague-Dawley rats; details: for rat pK AUC po: 10 mg/kg po, 8% Ethanol/92% PEG-400, n = 4; for rat pK Cl: iv 0.5 mg/kg; for rat pK Cl / bioavailability: n = 4; for bioavailability: male, Sprague-Dawley, rat, 10 mg/kg po vs 0.5 mg/kg iv, read-out: rat pK F%
Procedure: The Test Items were orally administered at a dose of 10 mg/kg and a dosing volume of 10 mL/kg. […] The Test Items were intravenously administered at a dose of 0.5 mg/kg and a dosing volume of 2 mL/kg. […] Whole blood concentrations of the Test Items were measured using LC-MS/MS and selected pharmacokinetic parameters calculated using Pharsight WinNonLin software. For furthers details see Supplementary data file.

[2] = Log D pH 7.4, octanol/buffer shake flask method
Procedure: Briefly, octanol (pre-saturated with buffer) is added to the test compound and sonicated. Buffer at pH 7.4 (presaturated with octanol) is then added to the octanol. […] The system is mixed to allow distribution of the compound between the two phases.
Log D = Log (Coct / Caq ). Where: Coct = Concentration in octanol sample (corrected for dilution) and Caq = Concentration in aqueous sample (corrected for dilution)

mouse RAR alpha receptor = target: T3, mouse RAR alpha receptor (Mus musculus, UniProt P11416); details: relative to the amplitude of the normalizing ATRA output
T3 sequence (P11416 183-417 limits assumed): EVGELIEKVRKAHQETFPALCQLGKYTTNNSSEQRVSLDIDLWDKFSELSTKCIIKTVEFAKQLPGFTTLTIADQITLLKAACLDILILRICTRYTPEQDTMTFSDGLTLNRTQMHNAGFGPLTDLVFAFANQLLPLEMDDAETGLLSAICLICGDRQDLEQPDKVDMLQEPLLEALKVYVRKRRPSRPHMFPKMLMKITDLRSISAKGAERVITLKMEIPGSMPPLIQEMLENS

[3] = mouse, ratio of relative EC50s RARγ/RARα
[4] = liver microsomes, human microsomes
[5] = liver microsomes, mouse microsomes

Structure (SMILES) | β/α ratio (mouse RAR beta receptor) | γ/α ratio (mouse RAR gamma receptor; [3]) | microsomal CLint [1, 4] [µL/min/mg] | microsomal CLint [1, 5] [µL/min/mg] | logD [2] | also measured
CC1(C)CCC(C)(C)c2c1cc(C(=O)Nc1cc(F)c(C(=O)O)c(F)c1)c(O)c2Cl [Compound 4, reference compound] | 141 | – | – | – | – | γ/α ratio (mouse RAR gamma receptor): 867
CCCOc1c(Cl)cc(C(=O)Nc2ccc(C(=O)O)cc2)cc1Cl [Compound 12] | 9.5 | 82 | – | – | – | –
CCCCOc1c(Cl)cc(C(=O)Nc2ccc(C(=O)O)cc2)cc1Cl [Compound 13] | 8.5 | 18 | – | – | – | –
CC(C)Oc1c(Cl)cc(C(=O)Nc2ccc(C(=O)O)cc2)cc1Cl [Compound 14] | 205 | 119 | – | – | – | –
O=C(O)c1ccc(NC(=O)c2cc(Cl)c(OC3CCCC3)c(Cl)c2)cc1 [Compound 15, 4-(3,5-Dichloro-4-(cyclopentyloxy)benzamido)benzoic acid] | – | – | 26 | 83 | 2.8 | rat pK AUC po (PK studies in rats): 1674 ng·min mL^−1; rat pK Cl (PK studies in rats): 2 mL/kg/min; bioavailability (PK studies in rats; whole blood): 0.3%
CC(C)(C)Oc1c(Cl)cc(C(=O)Nc2ccc(C(=O)O)cc2)cc1Cl [Compound 16, 4-(4-(tert-Butoxy)-3,5-dichlorobenzamido)benzoic acid] | – | – | 16 | 91 | 2.6 | –
CCOc1c(Cl)cc(C(=O)Nc2ccc(C(=O)O)c(F)c2)cc1Cl [Compound 17] | 80 | >80 | – | – | – | –
CCOc1c(Cl)cc(C(=O)Nc2ccc(C(=O)O)c(C)c2)cc1Cl [Compound 18, 4-(3,5-Dichloro-4-ethoxybenzamido)-2-methylbenzoic acid] | – | – | 14 | 38 | 1.7 | rat pK AUC po (PK studies in rats): 74,396 ng·min mL^−1; rat pK Cl (PK studies in rats): 1.6 mL/kg/min; bioavailability (PK studies in rats; whole blood): 12%
CCOc1c(Cl)cc(C(=O)Nc2ccc(C(=O)O)c(O)c2)cc1Cl [Compound 19, 4-(3,5-Dichloro-4-ethoxybenzamido)-2-hydroxybenzoic acid] | 37 | 149 | – | – | – | –
CCOc1c(Cl)cc(C(=O)Nc2ccc(C(=O)O)c(Cl)c2)cc1Cl [Compound 20] | 64 | >50 | – | – | – | –
CCOc1c(Cl)cc(C(=O)Nc2ccc(C(=O)O)c(C(F)(F)F)c2)cc1Cl [Compound 21] | 1.5 | 11 | – | – | – | –
CCOc1c(Cl)cc(NC(=O)c2ccc(C(=O)O)cc2)cc1Cl [Compound 26, 4-(3,5-Dichloro-4-ethoxyphenylcarbamoyl)benzoic acid] | 12 | >3600 | – | – | – | –
CCOc1c(OC(C)C)cc(C(=O)Nc2ccc(C(=O)O)cc2)cc1OC(C)C [Compound 31, 4-(4-Ethoxy-3,5-diisopropoxybenzamido)benzoic acid] | – | – | – | – | 1.6 | microsomal CLint ([1]; human microsomes): 4 µL/min/mg; microsomal CLint ([1]; mouse microsomes): 8 µL/min/mg; rat pK Cl (PK studies in rats): 1 mL/kg/min; bioavailability (PK studies in rats; in vivo): 81%; RARα agonist type (partial / full agonist) (mouse RAR alpha receptor): partial RARα agonist
CCOc1c(OC2CCCC2)cc(C(=O)Nc2ccc(C(=O)O)cc2)cc1OC1CCCC1 [Compound 32] | 145 | 19 | – | – | – | RARα agonist type (partial / full agonist) (mouse RAR alpha receptor): partial agonist activity
CC(C)Oc1cc(C(=O)Nc2ccc(C(=O)O)cc2)cc(OC(C)C)c1OC(C)C [Compound 33] | 96 | 8 | – | – | – | RARα agonist type (partial / full agonist) (mouse RAR alpha receptor): partial agonist activity
CCOc1cc(C(=O)Nc2ccc(C(=O)O)cc2)cc(OC(C)C)c1OCC [Compound 34] | 84 | 34 | – | – | – | RARα agonist type (partial / full agonist) (mouse RAR alpha receptor): full RARα agonist
O=C(O)c1ccc(NC(=O)c2cc(Cl)c(OC3CCC3)c(OC3CCC3)c2)cc1 [Compound 40] | 22 | 447 | – | – | – | –

Structure (SMILES) | β/α ratio (mouse RAR beta receptor) | γ/α ratio (mouse RAR gamma receptor; [3]) | microsomal CLint [1, 4] [µL/min/mg] | microsomal CLint [1, 5] [µL/min/mg] | logD [2] | also measured
CC(C)(C)Oc1cc(C(=O)Nc2ccc(C(=O)O)cc2)cc(Cl)c1OC(C)(C)C [Compound 41, 4-(3,4-Di-tert-butoxy-5-chlorobenzamido)benzoic acid] | 44 | 189 | – | – | – | –
O=C(O)c1ccc(NC(=O)c2cc(Cl)c(OC3CCCC3)c(OC3CCCC3)c2)cc1 [Compound 42, 4-[3-Chloro-4,5-bis(cyclopentyloxy)benzamido]benzoic acid] | 32 | 336 | – | – | – | –
CC(C)Oc1cc(C(=O)Nc2ccc(C(=O)O)c(F)c2)cc(Cl)c1OC(C)C [Compound 43] | 34 | 300 | 6.9 | 18.8 | 2 | –
Cc1cc(NC(=O)c2cc(Cl)c(OC(C)C)c(OC(C)C)c2)ccc1C(=O)O [Compound 44] | 45 | 2947 | 15 | 26.2 | 2.3 | rat pK AUC po (PK studies in rats): 77,670 ng·min mL^−1; rat pK Cl (PK studies in rats): 5.4 mL/kg/min; bioavailability (PK studies in rats; whole blood): 66%
Cc1cc(NC(=O)c2cc(Cl)c(OC(C)(C)C)c(OC(C)(C)C)c2)ccc1C(=O)O [Compound 45] | – | 128 | – | – | 2.9 | microsomal CLint ([1]; human microsomes): 28.7 µL/min/mg; microsomal CLint ([1]; mouse microsomes): 36.2 µL/min/mg
CCOc1c(Cl)cc(C(=O)Nc2ccc(C(=O)O)cc2)cc1OC(C)C [Compound 49, 4-(3-Chloro-4-ethoxy-5-isopropoxybenzamido)benzoic acid] | – | – | 11 | 41 | 1.7 | RARα agonist type (partial / full agonist) (mouse RAR alpha receptor): partial agonist
CCOc1cc(C(=O)Nc2ccc(C(=O)O)cc2)cc(Cl)c1OC(C)C [Compound 52] | 3.1 | 570 | – | – | – | –
COc1c(Cl)cc(C(=O)Nc2ccc(C(=O)O)c(F)c2)cc1OC(C)C [Compound 53] | 609 | 17,600 | 0.3 | 11 | 1 | rat pK AUC po (PK studies in rats): 10,871 ng·min mL^−1; rat pK Cl (PK studies in rats): 15 mL/kg/min; bioavailability (PK studies in rats; whole blood): 15%
CCOc1c(Cl)cc(C(=O)Nc2ccc(C(=O)O)c(F)c2)cc1OC(C)C [Compound 54] | 487 | 6169 | 3.3 | 17.9 | 1.4 | rat pK AUC po (PK studies in rats): 15,376 ng·min mL^−1; rat pK Cl (PK studies in rats): 12 mL/kg/min; bioavailability (PK studies in rats; whole blood): 12%
COc1c(Cl)cc(C(=O)Nc2ccc(C(=O)O)c(C)c2)cc1OC(C)C [Compound 55] | 241 | 509 | 1.5 | 10.6 | 1.3 | RARα agonist type (partial / full agonist) (mouse RAR alpha receptor): partial RARα agonist activity
CCOc1cc(C(=O)Nc2ccc(C(=O)O)c(C)c2)cc(Cl)c1OC(C)C [Compound 57] | 286 | 1675 | 8.7 | 25.7 | 1.9 | –
CCOc1c(Cl)cc(C(=O)Nc2ccc(C(=O)O)c(C)c2)cc1OC [Compound 58] | 210 | >250 | – | 18.4 | – | –
CCOc1c(Cl)cc(C(=O)Nc2ccc(C(=O)O)c(C)c2)cc1OCC1CC1 [Compound 59] | 58 | 38,461 | – | 42.3 | – | –
O=C(O)c1ccc(NC(=O)c2cc(Cl)c(O)c(Cl)c2)cc1 [Compound 60] | 7 | 55 | – | – | – | –
COc1c(Cl)cc(C(=O)Nc2ccc(C(=O)O)cc2)cc1Cl [Compound 61] | 318 | 195 | – | – | – | –
CCOc1cc(C(=O)Nc2ccc(C(=O)O)cc2)cc(OCC)c1OCC [Compound 62] | 174 | 16 | – | – | – | –
